According to ChEMBL document CHEMBL1615344, “Cerep in vitro phospholipidosis assay data”:

Key:
[1] = (§1) Cerep Phospholipidosis assay (HepG2 cells); type: ADME, cell-based; details: human, HepG2 cells; read-out: Maximum test concentration that did not exhibit cytotoxicity
Phospholipidosis = experiment: as §1; type: ADME, cell-based; details: human, hepg2

SMILES | MNTC [1] | Phospholipidosis as % of positive control (Phospholipidosis)
CN1CCN(C2=Nc3cc(Cl)ccc3Nc3ccccc32)CC1 [CLOZAPINE] | 12.5 µM | 18.9%
C=C[C@H]1C[N@@]2CC[C@H]1C[C@@H]2[C@@H](O)c1ccnc2ccc(OC)cc12 [QUINIDINE] | 25 µM | 3.2%
CCCC(CCC)C(=O)O [VALPROIC ACID] | 100 µM | 0.2%
OCCOCCN1CCN(C(c2ccccc2)c2ccc(Cl)cc2)CC1 (stereo not drawn) [HYDROXYZINE] | 25 µM | 35.8%
CN(C)CCC=C1c2ccccc2CCc2ccccc21 [AMITRIPTYLINE] | 20 µM | 49.8%
CC(=O)Nc1ccc(O)cc1 [ACETAMINOPHEN] | 100 µM | 0.3%
CCCCc1oc2ccccc2c1C(=O)c1cc(I)c(OCCN(CC)CC)c(I)c1 [AMIODARONE] | 6.25 µM | 38.4%
CC1=CC(=O)c2ccccc2C1=O [MENADIONE] | 3.13 µM | 1%
CCN(CC)CCCC(C)Nc1ccnc2cc(Cl)ccc12 (stereo not drawn) [CHLOROQUINE] | 10 µM | 22.8%
CC[C@H]1OC(=O)[C@H](C)[C@@H](O[C@H]2C[C@@](C)(OC)[C@@H](O)[C@H](C)O2)[C@H](C)[C@@H](O[C@@H]2O[C@H](C)C[C@H](N(C)C)[C@H]2O)[C@](C)(O)C[C@@H](C)C(=O)[C@H](C)[C@@H](O)[C@]1(C)O [ERYTHROMYCIN] | 50 µM | 61.9%
CN(C)CCC=C1c2ccccc2COc2ccccc21 [DOXEPIN] | 25 µM | 36.4%
CC/C(=C(\c1ccccc1)c1ccc(OCCN(C)C)cc1)c1ccccc1 [TAMOXIFEN] | 6.25 µM | 53%
Nc1c(Br)cc(Br)cc1CN[C@H]1CC[C@H](O)CC1 [AMBROXOL] | 50 µM | 29.7%
CN[C@H]1CC[C@@H](c2ccc(Cl)c(Cl)c2)c2ccccc21 [SERTRALINE] | 3.13 µM | 100%
C1CCC(C(CC2CCCCN2)C2CCCCC2)CC1 (stereo not drawn) [PERHEXILINE] | 3.13 µM | 36%
O=C(CCCN1CCC(O)(c2ccc(Cl)cc2)CC1)c1ccc(F)cc1 [HALOPERIDOL] | 12.5 µM | 42.1%

SMILES | MNTC [1] | Phospholipidosis as % of positive control (Phospholipidosis)
CN(C)CCCN1c2ccccc2CCc2ccccc21 [IMIPRAMINE] | 6.25 µM | 2.1%
CCN(CC)CCOc1ccc(C(O)(Cc2ccc(Cl)cc2)c2ccc(C)cc2)cc1 (stereo not drawn) [TRIPARANOL] | 3.13 µM | 44.9%
CC1COc2c(N3CCN(C)CC3)c(F)cc3c(=O)c(C(=O)O)cn1c23 (stereo not drawn) [OFLOXACIN] | 50 µM | 0.3%
NCC[C@H](O)C(=O)N[C@@H]1C[C@H](N)[C@@H](O[C@H]2O[C@H](CN)[C@@H](O)[C@H](O)[C@H]2O)[C@H](O)[C@H]1O[C@H]1O[C@H](CO)[C@@H](O)[C@H](N)[C@H]1O [AMIKACIN] | 25 µM | 4.9%
Cc1cccc(CN2CCN(C(c3ccccc3)c3ccc(Cl)cc3)CC2)c1 (stereo not drawn) [MECLIZINE] | 25 µM | 10.5%
CNCCC(Oc1ccc(C(F)(F)F)cc1)c1ccccc1 (stereo not drawn) [FLUOXETINE] | 5 µM | 
CN(C)CCCC1(c2ccc(F)cc2)OCc2cc(C#N)ccc21 (stereo not drawn) [CITALOPRAM] | 100 µM | 19.6%
CC(C)NCC(O)c1ccc(NS(C)(=O)=O)cc1 (stereo not drawn) [SOTALOL] | 50 µM | 0.3%
CC(C)NCC(O)COc1cccc2ccccc12 (stereo not drawn) [PROPRANOLOL] | 25 µM | 36%
CC(CCc1ccccc1)NCC(O)c1ccc(O)c(C(N)=O)c1 (stereo not drawn) [LABETALOL] | 25 µM | 5.3%
CCN(CC)CCOc1ccc2c(c1)C(=O)c1cc(OCCN(CC)CC)ccc1-2 [TILORONE] | 3.13 µM | 20.2%
CC[C@H]1OC(=O)[C@H](C)[C@@H](O[C@H]2C[C@@](C)(OC)[C@@H](O)[C@H](C)O2)[C@H](C)[C@@H](O[C@@H]2O[C@H](C)C[C@H](N(C)C)[C@H]2O)[C@](C)(O)C[C@@H](C)CN(C)[C@H](C)[C@@H](O)[C@]1(C)O [AZITHROMYCIN] | 25 µM | 26.7%
CN(Cc1cc(Br)cc(Br)c1N)C1CCCCC1 [BROMHEXINE] | 50 µM | 30.1%
CN(C)CCCN1c2ccccc2Sc2ccc(Cl)cc21 [CHLORPROMAZINE] | 5 µM | 54.7%
CC(=O)N1CCN(c2ccc(OCC3COC(Cn4ccnc4)(c4ccc(Cl)cc4Cl)O3)cc2)CC1 (stereo not drawn) [KETOCONAZOLE] | 12.5 µM | 52%
CNCCCC12CCC(c3ccccc31)c1ccccc12 [MAPROTILINE] | 6.25 µM | 42.2%
